# Results reported in patent US12578273B2, “Ph-reversible leuco-BODIPY probe for in situ visualization of extracellular vesicles and their secretion from living cells” (The Chinese University of Hong Kong, priority 2021, dated 2026).
# Assay: pH-dependent spectroscopic properties (pH titration, absorption and fluorescence)
# Assay type: physicochemical
# Method: In each step of pH titration, small volumes (2-10 μL) of HCl at appropriate concentrations (0.1, 10^−2, or 10^−3 M) were pipetted directly into the measurement cell, followed by filling up with 2 mL of 1 μM dye-containing solution [either in a mixture of PBS/ethanol 1:1 (v/v) or 0.5% (v/v) DMSO]. The pH was monitored at 298 K using a digital pH meter (827 pH lab) equipped with a Biotrode (Metrohm, Herisau, Switzerland). Calibration of the instrument was performed with standard aqueous solutions of pH 4, 7, and 9 from Metrohm. Absorption and fluorescence measurements were carried out on an Agilent Cary 5000 spectrophotometer and a Horiba Jobin Yvon spectrometer (Nanolog FL3-2iHR), respectively.
# We investigated the spectroscopic properties of the fluorescent probe as a function of pH in phosphate-buffered saline (PBS) containing 50% ethanol by UV-vis spectrophotometry and fluorimetry (FIGS. 21A-21F, 22-23).
# [1] = pH range of 3-11, C2H5OH/PBS (1:1, v/v)
SMILES,onset of the fluorescence peak at 618 nm (pH) (PBS containing 50% ethanol),red emission peak (PBS containing 50% ethanol),"longest wavelength absorption band (acidic conditions (pH of about 4), PBS containing 50% ethanol)",increase in emission at 618 nm (pH drops from 7.4 to 5.5),increase in emission at 618 nm (pH drops from 7.4 to 6.5),increase in emission at 618 nm (pH drops from 7.4 to 7.0),"pKa (corrected pKa) (reappearance of the absorption bands at 602 nm on reacidification with HCl, PBS containing 50% ethanol)",absorbance as a function of pH [1],fluorescence as a function of pH [1]
CCOC(=O)C(=CC1=[N+]2C(=C(c3ccncc3)c3ccc(C=C(C(=O)OCC)C(=O)OCC)n3[B-]2(F)F)C=C1)C(=O)OCC [BODIPY],about 7.4,618 nm,602 nm,about 15 fold,8 fold,about 3 fold,5.28±0.05,–,–
"CN(C)CCNC(=O)CCc1ccc2n1[B-](F)(F)[N+]1=C(c3ccc[nH]3)C=CC1=C2 [LysoTracker™ Red, reference compound]",–,–,–,–,–,–,–,near-constant,always-on
